Test results published in ChEMBL document CHEMBL1130456, “Nonpeptide glycoprotein IIb/IIIa inhibitors. 13. design and synthesis of an orally active pyrazolopiperazinone nonpeptide fibrinogen receptor antagonist” (Bioorg Med Chem Lett, 1997).
“And” between values parts separate entries of the source, which are not always exact repeats. Identical values can stand only once.

Species on record: Homo sapiens
Experiment: Concentration required for 50% inhibition of platelet aggregation of human gel-filtered platelets(GFP) in platelet aggregation assay
Type: functional

Row | Compound | IC50 [µM]
1 | O=C(N[C@@H](CNC(=O)c1cc2n(n1)CCN(CCC1CCNCC1)C2=O)C(=O)O)OCc1ccccc1 | 0.005
2 | C=CCCS(=O)(=O)N[C@@H](CNC(=O)c1cc2n(n1)CCN(CCC1CCNCC1)C2=O)C(=O)O | 0.011
3 | C[C@H](CC(=O)O)NC(=O)c1cc2n(n1)CCN(CCC1CCNCC1)C2=O | 0.26
4 | O=C(NCc1ccccc1)N[C@@H](CNC(=O)c1cc2n(n1)CCN(CCC1CCNCC1)C2=O)C(=O)O | 0.022
5 | C#C[C@H](CC(=O)O)NC(=O)c1cc2n(n1)CCN(CCC1CCNCC1)C2=O | 0.12

Results, then the compound that gave them:

Row | IC50 [µM] | Compound
6 | 0.015 | CS(=O)(=O)N[C@@H](CNC(=O)c1cc2n(n1)CCN(CCC1CCNCC1)C2=O)C(=O)O
7 | 0.025 | CC(=O)N[C@@H](CNC(=O)c1cc2n(n1)CCN(CCC1CCNCC1)C2=O)C(=O)O
8 | 0.045 | N[C@@H](CNC(=O)c1cc2n(n1)CCN(CCC1CCNCC1)C2=O)C(=O)O

Each compound was assayed on Rhesus monkey (assay: Inhibition of platelet aggregation at 6 hr in response to ADP and collagen in conscious rhesus monkey).
Type: functional, Cercopithecidae

Row | Compound | Inhibition [%]
9 | CCCCS(=O)(=O)N[C@@H](CNC(=O)c1cc2n(n1)CCN(CCC1CCNCC1)C2=O)C(=O)O | >90

These compounds were tested on Rhesus monkey (assay: Inhibition of platelet aggregation at 24 hr in response to collagen in conscious rhesus monkey).
Type: functional, Cercopithecidae

Row | Compound | Inhibition
10 | CCCCS(=O)(=O)N[C@@H](CNC(=O)c1cc2n(n1)CCN(CCC1CCNCC1)C2=O)C(=O)O | 86% and 31%
